This note sets out measurements from patent US20200377459A1, “CHARGED ION CHANNEL BLOCKERS AND METHODS FOR USE” (President and Fellows of Harvard College, priority 2015, published 2020).

One may read the inhibition as the percentage by which the read-out fell short of the control. Low readings indicate little suppression, high ones strong suppression.

For one experiment, the target named is T1, human Nav1.7 channels (Homo sapiens, UniProt Q15858).
T1 construct: expressed in transfected cells
As to the kind of experiment: Whole-cell patch clamp, use-dependent block of sodium current, drug applied intracellularly or externally. The class given is cell-based. Conditions: for effect on sodium current when applied externally versus inside the cell: same protocol, applied outside the cell. On the procedure: Whole-cell recordings were made of currents carried by voltage-activated channels in HEK293 cells stably expressing human Nav1.7 channels. Recordings were made using patch pipettes with resistances of 2-3.5 MQ when filled with internal solution, consisting of 61 mM CsF, 61 mM CsCl, 9 mM NaCl, 1.8 mM MgCl2, 9 mM EGTA, 14 mM creatine phosphate (tris salt), 4 mM MgATP, and 0.3 mM GTP (tris salt), 9 mM HEPES, pH adjusted to 7.2 with CsOH. The shank of the electrode was wrapped with Parafilm in order to reduce capacitance and allow optimal series resistance compensation without oscillation. Seals were obtained and the whole-cell configuration established with cells in Tyrode's solution (155 mM NaCl, 3.5 mM KCl, 1.5 mM CaCl2), 1 mM MgCl2, 10 mM HEPES, 10 mM glucose, pH adjusted to 7.4 with NaOH) with 10 mM TEACl. To ensure complete dialysis with pipette solution, recordings began after 5 to 10 min after establishment of the whole-cell configuration.
Currents were recorded at room temperature (21-23° C.) with an Axopatch 200 amplifier and filtered at 5 kHz with a low-pass Bessel filter. The amplifier was tuned for partial compensation of series resistance (typically 70-80% of a total series resistance of 4-10 MO). Currents were digitized using a Digidata 1322A data acquisition interface controlled by pClamp9.2 software (Axon Instruments) and analyzed using programs written in Igor Pro 4.0 (Wavemetrics, Lake Oswego, Oreg.). Currents were corrected for linear capacitative and leak currents determined using 5 mV hyperpolarizations delivered from the resting potential (usually −80 or −100 mV) and then appropriately scaled and subtracted.
Sodium currents were evoked by 30-msec depolarizations from −100 mV to −20 mV. To assay use-dependent block, pulses were delivered at series of increasing rates: 0.05 Hz for 1-min, 0.33 Hz for 1-min, 1 Hz for 1-min, 3 Hz for 1-min, 5 Hz for 30 seconds, 10 Hz for 30 seconds, with 1 minute rest between each series of pulses. After the series of pulses to induce use-dependent block, the time course of recovery was followed using pulses delivered at 01. Hz (2-min) and 0.05 Hz (1-min).
To induce use-dependent block, the depolarizations were delivered by series of increasing rates: 0.05 Hz for 1-min, 0.33 Hz for 1-min, 1 Hz for 1-min, 3 Hz for 1-min, 5 Hz for 30 seconds, 10 Hz for 30 seconds, with 1 minute rest between each series of pulses. After the series of pulses to induce use-dependent block, the time course of recovery was followed using pulses delivered at 01. Hz (2-min) and 0.05 Hz (1-min). Peak sodium current was plotted as a function of experimental time (1-min per division on the time axis).
For orientation: Patch clamp records ionic current or voltage across a cell membrane.

Experiment [1] has as its system thermal nociceptive threshold. As to the kind of experiment: Thermal nociceptive threshold after acute intraplantar injection in naive animals. Conditions: naïve animals. The class given is in vivo, rats.
The test system of experiment [2] is CFA-induced thermal hyperalgesia. Kind of experiment: CFA-induced thermal hyperalgesia (Hargreaves radiant heat, hind paw). Format: in vivo. The settings on record: mice, intraplantar co-injection with CFA, 1%. On the procedure: FIGS. 2A-2D show reversal of CFA-induced thermal hyperalgesia by charged sodium channel blockers. FIGS. 2A and 2C show time course (0, 1, 6, and 24 hours) of changes in thermal nociceptive sensitivity measured as response latency (seconds) to a constant radiant heat source applied to the plantar surface of hind paw in mice co-treated with 20 μL (injected in the left hindpaw) of CFA (50% emulsion) and saline, and when the CFA was co-applied with QX-314 (1%, hollow square), N-ethyl etidocaine (Compound 21, 1%; dark square), or ACS8180-3B (Compound 3, 1%; solid triangle). FIGS. 2B and 2D show the nociceptive heat pain response time before CFA treatment and after treatment with the different compounds 1 hour post CFA injection. The data are means±SEM of 8-16 mice per group. The statistical comparison with pre-CFA (*) and with CFA+Vehicle (+) is indicated by +P<0.05; ++P<0.01 and +++,*** P<0.001. All procedures were approved by the Institutional Animal Care and Use Committees. Mice and rats were housed in standard environmental conditions (12-h light/dark cycle; 23° C.; food and water ad libitum) at facilities accredited by the Association for Assessment and Accreditation of Laboratory Animal Care. 8-week old male BALB/c (stock number: 001026) and C57BL/6J (stock number 000664) mice were purchased from Jackson Laboratory and respectively used in allergic airway inflammation (FIG. 5) and pain hypersensitivity model (FIGS. 2A-2D). 6-week old male Sprague-Dawley (stock number: 400) rats, 150±25 grams, were purchased from Charles River laboratory and used to assess pain hypersensitivity (FIG. 3). The compounds were injected in the plantar surface of each animal's right hind paw in 10 μl (mice) or 50 μl (rats) volume of 1:1 emulsion of Complete Freund's Adjuvant (CFA). […] On the 4th day, their thermal nociceptive threshold was evaluated. […] Impact of treatment was analyzed 1 h prior and 1, 3, 6 and 24 h post-treatment. […] With each reading the apparatus was set with a cut-off time of 32 s.

T1 sequence (Q15858 whole entry): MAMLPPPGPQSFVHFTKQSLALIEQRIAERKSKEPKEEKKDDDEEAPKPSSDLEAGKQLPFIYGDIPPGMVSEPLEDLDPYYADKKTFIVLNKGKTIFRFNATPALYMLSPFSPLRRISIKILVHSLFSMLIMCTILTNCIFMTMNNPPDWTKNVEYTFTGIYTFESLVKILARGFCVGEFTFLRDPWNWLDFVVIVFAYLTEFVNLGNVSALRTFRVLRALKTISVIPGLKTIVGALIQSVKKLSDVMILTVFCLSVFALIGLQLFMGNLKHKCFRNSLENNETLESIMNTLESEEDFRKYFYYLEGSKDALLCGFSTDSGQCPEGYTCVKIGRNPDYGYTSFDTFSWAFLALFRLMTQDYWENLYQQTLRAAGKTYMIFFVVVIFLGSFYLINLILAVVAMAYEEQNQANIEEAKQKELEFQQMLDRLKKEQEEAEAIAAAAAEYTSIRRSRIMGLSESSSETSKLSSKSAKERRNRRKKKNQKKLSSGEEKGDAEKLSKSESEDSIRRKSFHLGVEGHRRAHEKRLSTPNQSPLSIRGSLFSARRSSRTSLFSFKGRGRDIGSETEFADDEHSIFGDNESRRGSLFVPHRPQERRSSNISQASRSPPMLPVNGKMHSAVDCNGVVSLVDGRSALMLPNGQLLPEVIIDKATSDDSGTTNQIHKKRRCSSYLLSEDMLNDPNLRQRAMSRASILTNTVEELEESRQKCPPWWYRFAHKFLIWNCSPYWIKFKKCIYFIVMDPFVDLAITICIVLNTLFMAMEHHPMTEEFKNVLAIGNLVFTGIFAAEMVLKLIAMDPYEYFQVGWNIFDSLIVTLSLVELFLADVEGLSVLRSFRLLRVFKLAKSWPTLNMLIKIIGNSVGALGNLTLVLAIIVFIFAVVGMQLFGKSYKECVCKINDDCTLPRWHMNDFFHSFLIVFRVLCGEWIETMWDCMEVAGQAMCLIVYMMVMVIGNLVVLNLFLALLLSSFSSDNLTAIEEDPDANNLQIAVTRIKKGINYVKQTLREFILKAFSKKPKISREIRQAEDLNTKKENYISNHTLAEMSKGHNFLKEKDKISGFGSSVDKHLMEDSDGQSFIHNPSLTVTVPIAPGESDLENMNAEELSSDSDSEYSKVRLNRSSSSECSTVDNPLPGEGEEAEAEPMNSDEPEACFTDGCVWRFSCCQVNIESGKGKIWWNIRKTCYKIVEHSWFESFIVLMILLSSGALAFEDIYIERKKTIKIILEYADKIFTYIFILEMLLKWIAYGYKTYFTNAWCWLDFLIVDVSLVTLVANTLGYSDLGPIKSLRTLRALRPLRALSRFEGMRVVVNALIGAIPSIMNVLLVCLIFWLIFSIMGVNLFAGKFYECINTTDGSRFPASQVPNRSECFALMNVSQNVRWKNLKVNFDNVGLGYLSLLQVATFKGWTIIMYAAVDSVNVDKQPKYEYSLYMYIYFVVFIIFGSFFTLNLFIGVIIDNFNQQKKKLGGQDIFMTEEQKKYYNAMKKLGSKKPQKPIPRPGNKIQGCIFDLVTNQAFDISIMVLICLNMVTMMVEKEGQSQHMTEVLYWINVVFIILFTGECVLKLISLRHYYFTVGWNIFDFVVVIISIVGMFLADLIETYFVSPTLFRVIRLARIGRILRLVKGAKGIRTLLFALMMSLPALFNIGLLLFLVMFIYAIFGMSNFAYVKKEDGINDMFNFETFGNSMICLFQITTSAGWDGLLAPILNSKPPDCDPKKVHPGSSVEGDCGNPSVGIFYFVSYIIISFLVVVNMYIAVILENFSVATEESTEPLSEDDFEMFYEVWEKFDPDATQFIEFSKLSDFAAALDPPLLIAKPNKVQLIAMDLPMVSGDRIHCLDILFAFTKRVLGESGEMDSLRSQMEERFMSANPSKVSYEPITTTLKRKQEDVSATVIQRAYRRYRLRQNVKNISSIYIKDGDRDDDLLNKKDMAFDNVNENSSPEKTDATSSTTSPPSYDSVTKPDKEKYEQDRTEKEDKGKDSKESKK

On to `Cc1cccc(C)c1NC(=O)C(C)[N+]1(C)CCCC1` (stereo not shown) [Compound 1, 1-(1-(2,6-dimethylphenylamino)-1-oxopropan-2-yl)-1-methylpyrrolidinium Chloride], for which the inhibition at 100 µM against human Nav1.7 channels stood at 40%.

With `Cc1cccc(C)c1NC(=O)C(C)(C)[N+]1(C)CCCC1` [Compound 2, 1-(1-(2,6-dimethylphenylamino)-2-methyl-1-oxopropan-2-yl)-1-methylpyrrolidinium Chloride], at 100 µM the inhibition at human Nav1.7 channels was 42%.

At human Nav1.7 channels, `CCC(C(=O)Nc1c(C)cccc1C)[N+]1(CC)CCCC1` (stereo not shown) [Compound 3, 1-(1-(2,6-dimethylphenylamino)-1-oxobutan-2-yl)-1-ethylpyrrolidinium Chloride] returned an inhibition at 100 µM of 78%. Also, the “long lasting analgesia in naïve animals” value in experiment [1] is recorded as “without long lasting analgesia”. In experiment [2], the “reversal of CFA-induced thermal hyperalgesia” value is “potent blockade”.

For the compound `Cc1cccc(C)c1NC(=O)C(C)[N+]1(C)CCCCC1` (stereo not shown) [Compound 4, 1-(1-(2,6-dimethylphenylamino)-1-oxopropan-2-yl)-1-methylpiperidinium Chloride], at human Nav1.7 channels, the inhibition at 100 µM was found to be 43%.

On to `Cc1cccc(C)c1NC(=O)C(C)(C)[N+]1(C)CCCCC1` [Compound 5, 1-(1-(2,6-dimethylphenylamino)-2-methyl-1-oxopropan-2-yl)-1-methylpiperidinium Chloride], for which the inhibition at 100 µM at human Nav1.7 channels was determined as 34%.

Turning to `CCC(C(=O)Nc1c(C)cccc1C)[N+]1(CC)CCCCC1` (stereo not shown) [Compound 6, 1-(1-(2,6-dimethylphenylamino)-1-oxobutan-2-yl)-1-ethylpiperidinium], at human Nav1.7 channels, the inhibition at 100 µM is 83% and the “effect on sodium current when applied externally versus inside the cell” value is “far more effective when applied inside the cell”. In addition, the “use dependent accumulation of block” value on human Nav1.7 channels (100 micromolar inside cell, stimulation frequencies from 1 to 10 Hz) was “strong use dependent accumulation of block”. On human Nav1.7 channels (listed as compound 6), the “effect on sodium current when applied externally versus inside the cell” value was “very little effect”.

`Cc1cccc(C)c1NC(=O)C1CCC[N+]1(C)C` (stereo not shown) [Compound 13, 2-(2,6-dimethylphenylcarbamoyl)-1,1-dimethylpyrrolidinium Chloride] came in with an inhibition at 100 µM at human Nav1.7 channels of 33%.

The compound `CC[N+]1(CC)CCCC1C(=O)Nc1c(C)cccc1C` (stereo not shown) [Compound 14, 2-(2,6-dimethylphenylcarbamoyl)-1,1-diethylpyrrolidinium Chloride] yielded an inhibition at 100 µM on human Nav1.7 channels of 62%.

On to `CC[N+]1(CC)CCCCC1C(=O)Nc1c(C)cccc1C` (stereo not shown) [Compound 15, 2-(2,6-dimethylphenylcarbamoyl)-1,1-diethylpiperidinium Chloride], for which the inhibition at 100 µM against human Nav1.7 channels is 40%.

On human Nav1.7 channels, `Cc1cc(F)cc(C)c1NC(=O)C1CCCC[N+]1(C)C` (stereo not shown) [Compound 16, 2-(4-fluoro-2,6-dimethylphenylcarbamoyl)-1,1-dimethylpiperidinium Chloride] gave an inhibition at 100 µM of 70%.

In turn, `CC[N+](CC)(CC)CC(=O)Nc1ccc(N)cc1` [Compound 22, 2-(4-aminophenylamino)-N,N,N-triethyl-2-oxoethanaminium] showed an inhibition at 100 µM on human Nav1.7 channels of 0%.

As for `CC[N+](CC)(CC)CC(=O)Nc1c(C)cc(N)cc1C` [Compound 23, 2-(4-amino-2,6-dimethylphenylamino)-N, N, N-triethyl-2-oxoethanaminium Chloride], at 100 µM the inhibition at human Nav1.7 channels was 56%.

On human Nav1.7 channels, `CC[N+](CC)(CC)CCC(=O)Nc1c(C)cccc1C` [Compound 24, 3-(2,6-dimethylphenylamino)-N,N,N-triethyl-3-oxopropan-1-aminium Chloride] returned an inhibition at 100 µM of 15%.

On to `CC[N+](CC)(CC)CCNC(=O)c1c(C)cccc1C` [Compound 25], for which at 100 µM the inhibition against human Nav1.7 channels was 3%.
